Experimental data: patent US9145373B2, “Certain kynurenine-3-monooxygenase inhibitors, pharmaceutical compositions, and methods of use thereof” (CHDI FOUNDATION, INC., priority 2008, dated 2015)

molecular target: T1, KMO mouse enzyme (Mus musculus, UniProt Q91WN4); assay: KMO mouse enzyme assay: L-Kynurenine hydroxylation to 3-Hydroxy-Kynurenine monitored by LC/MS (MRM); format: biochemical; details: compound at 10 μM; KMO enzyme from mouse liver mitochondria
T1 construct: KMO enzyme prepared at Evotec from mouse liver (4-6 weeks old) via mitochondria isolation; from tissue; host or cells: mouse liver (4-6 weeks old), mitochondria isolation, prepared at Evotec
T1 sequence (Q91WN4 whole entry): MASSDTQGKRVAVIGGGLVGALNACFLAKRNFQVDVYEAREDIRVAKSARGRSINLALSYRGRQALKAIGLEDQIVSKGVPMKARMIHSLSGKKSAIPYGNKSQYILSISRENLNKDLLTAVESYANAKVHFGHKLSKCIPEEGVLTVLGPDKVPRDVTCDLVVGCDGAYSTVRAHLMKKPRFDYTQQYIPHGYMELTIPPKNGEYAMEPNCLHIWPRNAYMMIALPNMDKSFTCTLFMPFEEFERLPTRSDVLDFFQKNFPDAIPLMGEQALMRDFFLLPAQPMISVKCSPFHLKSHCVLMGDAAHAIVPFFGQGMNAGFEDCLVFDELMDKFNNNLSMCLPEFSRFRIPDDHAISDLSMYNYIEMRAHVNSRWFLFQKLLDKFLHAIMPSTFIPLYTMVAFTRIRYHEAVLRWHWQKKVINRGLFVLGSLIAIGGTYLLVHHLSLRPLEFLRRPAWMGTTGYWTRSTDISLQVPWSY
Method in brief: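 Enzyme is a mitochondrial preparation from 4-6-week-old mouse liver, with L-kynurenine as substrate in potassium phosphate buffer, pH 7.4. 3-Hydroxy-kynurenine formed is quantified by LC/MS using multiple reaction monitoring. Compound stocks were 10 mM in DMSO.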

With `O=C(c1cc(-c2ccc(Cl)c(Cl)c2)ncn1)N1CC2(CC2)c2ccccc21` [[6-(3,4-Dichloro-phenyl)-pyrimidin-4-yl]-(1′,2′-dihydro-spiro[cyclopropane-1,3′-[3H]indol]-1′)-methanone] the “INH.Mouse @ 10 μM” value was 100.0.

same assay, conditions: compound at 10 μM; KMO enzyme from mouse liver mitochondria; read-out: INH.Mouse @ 10 μM

Point of comparison: `O=C(c1cc(-c2cccc(Cl)c2)ncn1)N1CCCc2ccccc21` [[6-(3-Chloro-phenyl)-pyrimidin-4-yl]-(3,4-dihydro-2H-quinolin-1-yl)-methanone], inhibition at 10 µM 100%. Against it:
- O=C(c1cc(-c2ccc(Cl)c(Cl)c2)ncn1)N1Cc2ccccc2C1 [[6-(3,4-Dichloro-phenyl)-pyrimidin-4-yl]-(1,3-dihydro-isoindol-2-yl)-methanone] — lower, 63.5%
- O=C(c1cc(-c2ccc(Cl)c(Cl)c2)ncn1)N1CCc2ccccc21 [[6-(3,4-Dichloro-phenyl)-pyrimidin-4-yl]-(2,3-dihydro-indol-1-yl)-methanone] — the same, 100%
- O=C(c1cc(-c2ccc(Cl)c(Cl)c2)ncn1)N1CCCc2ccccc21 [[6-(3,4-Dichloro-phenyl)-pyrimidin-4-yl]-(3,4-dihydro-2H-quinolin-1-yl)-methanone] — lower, 92.6%
- O=C(c1cc(-c2ccc(Cl)c(Cl)c2)ncn1)N1CCc2cc(F)ccc21 [[6-(3,4-Dichloro-phenyl)-pyrimidin-4-yl]-(5-fluoro-2,3-dihydro-indol-1-yl)-methanone] — the same, 100%
- O=C(c1cc(-c2cc(Cl)cc(Cl)c2)ncn1)N1CCc2ccccc21 [[6-(3,5-Dichloro-phenyl)-pyrimidin-4-yl]-(2,3-dihydro-indol-1-yl)-methanone] — lower, 98.3%
- O=C(c1cc(-c2cccc(Cl)c2)ncn1)N1Cc2ccccc2C1 [[6-(3-Chloro-phenyl)-pyrimidin-4-yl]-(1,3-dihydro-isoindol-2-yl)-methanone] — the same, 100%
- O=C(c1cc(-c2cccc(Cl)c2)ncn1)N1CCc2ccccc21 [[6-(3-Chloro-phenyl)-pyrimidin-4-yl]-(2,3-dihydro-indol-1-yl)-methanone] — the same, 100%
- O=C(c1cc(-c2cccc(Cl)c2)ncn1)N1CCc2cnccc21 [[6-(3-Chloro-phenyl)-pyrimidin-4-yl]-(2,3-dihydro-pyrrolo[3,2-c]pyridin-1-yl)-methanone] — the same, 100%
- CC1Cc2ccccc2N1C(=O)c1cc(-c2cccc(Cl)c2)ncn1 (stereo not shown) [[6-(3-Chloro-phenyl)-pyrimidin-4-yl]-(2-methyl-2,3-dihydro-indol-1-yl)-methanone] — lower, 76.9%
- O=C(c1cc(-c2cccc(Cl)c2)ncn1)N1CCC(O)CC1 [[6-(3-Chloro-phenyl)-pyrimidin-4-yl]-(4-hydroxy-piperidin-1-yl)-methanone] — the same, 100%
- CN1CCN(C(=O)c2cc(-c3cccc(Cl)c3)ncn2)CC1 [[6-(3-Chloro-phenyl)-pyrimidin-4-yl]-(4-methyl-piperazin-1-yl)-methanone] — lower, 64.3%
- CC1CCN(C(=O)c2cc(-c3cccc(Cl)c3)ncn2)CC1 [[6-(3-Chloro-phenyl)-pyrimidin-4-yl]-(4-methyl-piperidin-1-yl)-methanone] — lower, 88.2%
- O=C(c1cc(-c2cccc(Cl)c2)ncn1)N1CCc2cc(F)ccc21 [[6-(3-Chloro-phenyl)-pyrimidin-4-yl]-(5-fluoro-2,3-dihydro-indol-1-yl)-methanone] — the same, 100%
- O=C(c1cc(-c2cccc(Cl)c2)ncn1)N1CC[C@@H](O)C1 [[6-(3-Chloro-phenyl)-pyrimidin-4-yl]-((R)-3-hydroxy-pyrrolidin-1-yl)-methanone] — lower, 83.9%
- O=C(c1cc(-c2cccc(Cl)c2)ncn1)N1CC[C@H](O)C1 [[6-(3-Chloro-phenyl)-pyrimidin-4-yl]-((S)-3-hydroxy-pyrrolidin-1-yl)-methanone] — lower, 84.9%
- O=C(c1cc(-c2cccc(Cl)c2)ncn1)N1CCOCC1 [[6-(3-Chloro-phenyl)-pyrimidin-4-yl]-morpholin-4-yl-methanone] — the same, 100%
- O=C(c1cc(-c2cccc(Cl)c2)ncn1)N1CCCC1 [[6-(3-Chloro-phenyl)-pyrimidin-4-yl]-pyrrolidin-1-yl-methanone] — lower, 90.5%
